Experimental data as given in patent US20260232767A1, “INTERLEUKIN-23 RECEPTOR ANTAGONIST PEPTIDES FOR USE IN THE TREATMENT OF PSORIASIS” (Janssen Pharmaceutica NV, priority 2023, published 2026).

Tested on: subjects with moderate-to-severe plaque psoriasis
Assay: PSSD symptom and sign scores, Example 2
Format: in vivo, human
Conditions: for Change from Baseline in PSSD Symptom Score at Week 52, LSMean: MMRM model; for Subjects Achieving PSSD Sign Score 0 at Week 52: Subjects w/Baseline PSSD Sign Score ≥1 (Table 26, second block); for Subjects achieving PSSD Sign Score = 0 at Week 52: subjects with Baseline PSSD Sign Score ≥1; for Subjects achieving PSSD Symptom Score = 0 at Week 52: subjects with Baseline PSSD Symptom Score ≥1; for Change from Baseline in PSSD Sign Score, LSMean / Change from Baseline in PSSD Symptom Score, LSMean: MMRM
[1] = Placebo → 100 mg QD, crossed over at or after Week 16

CC(=O)NCCCC[C@@H]1NC(=O)[C@H](Cc2c[nH]c3c(C)cccc23)NC(=O)[C@H]([C@@H](C)O)NC(=O)[C@H](CC(N)=O)NC(=O)[C@@H](NC(C)=O)C(C)(C)SSC(C)(C)[C@@H](C(=O)N[C@@H](Cc2ccc(OCCN)cc2)C(=O)N[C@@H](Cc2ccc3ccccc3c2)C(=O)NC2(C(=O)N[C@@H](CCC(=O)O)C(=O)N[C@@H](CC(N)=O)C(=O)N[C@@H](Cc3cccnc3)C(=O)N(C)CC(N)=O)CCOCC2)NC1=O [IL-23 receptor antagonist peptide, Ac-[Pen]*-N-T-[W(7-Me)]-[Lys(Ac)]-[Pen]*-Phe[4-(2-aminoethoxy)]-[2-Nal]-[THP]-E-N-[3-Pal]-Sarc-NH2 (*[Pen]-[Pen]* formdisulfidebond)]
Change from Baseline in PSSD Sign Score at Week 52, Median (25 mg BID): −38.5 | Change from Baseline in PSSD Symptom Score at Week 52, Median (25 mg BID): −27.0 | Change from Baseline in PSSD Symptom Score at Week 52, LSMean (25 mg BID): −31.4 | Subjects Achieving PSSD Sign Score 0 at Week 52 (25 mg BID): 5 (12.2%) | Subjects achieving PSSD Sign Score = 0 at Week 52 (25 mg BID): 5 (12.2%) | Subjects achieving PSSD Symptom Score = 0 at Week 52 (25 mg BID): 7 (17.1%) | Change from Baseline in PSSD Sign Score at Week 52, Median (25 mg QD): −32.5 | Change from Baseline in PSSD Symptom Score at Week 52, Median (25 mg QD): −35.0 | Change from Baseline in PSSD Symptom Score at Week 52, LSMean (25 mg QD): −22.3 | Subjects Achieving PSSD Sign Score 0 at Week 52 (25 mg QD): 7 (16.3%) | Subjects achieving PSSD Sign Score = 0 at Week 52 (25 mg QD): 7 (16.3%) | Subjects achieving PSSD Symptom Score = 0 at Week 52 (25 mg QD): 8 (18.6%) | Change from Baseline in PSSD Sign Score at Week 52, Median (50 mg QD): −45.0 | Change from Baseline in PSSD Symptom Score at Week 52, Median (50 mg QD): −34.0 | Change from Baseline in PSSD Symptom Score at Week 52, LSMean (50 mg QD): −33.0 | Subjects achieving PSSD Sign Score = 0 at Week 52 (50 mg QD): 5 (11.6%) | Subjects achieving PSSD Symptom Score = 0 at Week 52 (50 mg QD): 9 (21.4%) | Change from Baseline in PSSD Sign Score at Week 52, Median (100 mg BID): −55.0 | Change from Baseline in PSSD Symptom Score at Week 52, Median (100 mg BID): −53.0 | Change from Baseline in PSSD Symptom Score at Week 52, LSMean (100 mg BID): −44.0 | Subjects Achieving PSSD Sign Score 0 at Week 52 (100 mg BID): 7 (16.7%) | Subjects achieving PSSD Sign Score = 0 at Week 52 (100 mg BID): 7 (16.7%) | Change from Baseline in PSSD Sign Score at Week 52, Median (100 mg QD): −43.0 | Change from Baseline in PSSD Symptom Score at Week 52, Median (100 mg QD): −28.0 | Change from Baseline in PSSD Symptom Score at Week 52, LSMean (100 mg QD): −36.5 | Subjects Achieving PSSD Sign Score 0 at Week 52 (100 mg QD): 6 (14.0%) | Change from Baseline in PSSD Sign Score at Week 52, Median [1]: −48.5 | Change from Baseline in PSSD Symptom Score at Week 52, Median [1]: −30.0 | Change from Baseline in PSSD Symptom Score at Week 52, LSMean [1]: −32.4 | Subjects achieving PSSD Sign Score = 0 at Week 52 [1]: (22.9%) | Subjects achieving PSSD Symptom Score = 0 at Week 52 [1]: (34.3%) | Change from Baseline in PSSD Sign Score, Mean (Week 1, 25 mg BID): −11.3 | Change from Baseline in PSSD Sign Score, Median (Week 1, 25 mg BID): −11.0 | Change from Baseline in PSSD Symptom Score, Mean (Week 1, 25 mg BID): −7.6 | Change from Baseline in PSSD Symptom Score, Median (Week 1, 25 mg BID): −8.0 | Change from Baseline in PSSD Sign Score, LSMean (Week 1, 25 mg BID): −11.4 | Change from Baseline in PSSD Symptom Score, LSMean (Week 1, 25 mg BID): −7.8 | Change from Baseline in PSSD Sign Score, Mean (Week 1, 25 mg QD): −11.9 | Change from Baseline in PSSD Sign Score, Median (Week 1, 25 mg QD): −10.5 | Change from Baseline in PSSD Symptom Score, Mean (Week 1, 25 mg QD): −12.9 | Change from Baseline in PSSD Symptom Score, Median (Week 1, 25 mg QD): −12.0 | Change from Baseline in PSSD Sign Score, LSMean (Week 1, 25 mg QD): −10.9 | Change from Baseline in PSSD Symptom Score, LSMean (Week 1, 25 mg QD): −11.1 | Change from Baseline in PSSD Sign Score, Mean (Week 1, 50 mg QD): −13.3 | Change from Baseline in PSSD Sign Score, Median (Week 1, 50 mg QD): −11.0 | Change from Baseline in PSSD Symptom Score, Mean (Week 1, 50 mg QD): −9.6 | Change from Baseline in PSSD Symptom Score, Median (Week 1, 50 mg QD): −12.0 | Change from Baseline in PSSD Sign Score, LSMean (Week 1, 50 mg QD): −13.3 | Change from Baseline in PSSD Symptom Score, LSMean (Week 1, 50 mg QD): −9.1 | Change from Baseline in PSSD Sign Score, Mean (Week 1, 100 mg BID): −15.9 | Change from Baseline in PSSD Sign Score, Median (Week 1, 100 mg BID): −16.0 | Change from Baseline in PSSD Symptom Score, Mean (Week 1, 100 mg BID): −12.5 | Change from Baseline in PSSD Symptom Score, Median (Week 1, 100 mg BID): −8.0 | Subjects Achieving PSSD Symptom Score 0 (%) (Week 1, 100 mg BID, Baseline Symptom Score ≥1, N=42): (2.4%) | Change from Baseline in PSSD Sign Score, LSMean (Week 1, 100 mg BID): −15.6 | Change from Baseline in PSSD Symptom Score, LSMean (Week 1, 100 mg BID): −11.5 | Change from Baseline in PSSD Sign Score, Mean (Week 1, 100 mg QD): −12.0 | Change from Baseline in PSSD Sign Score, Median (Week 1, 100 mg QD): −9.0 | Change from Baseline in PSSD Symptom Score, Mean (Week 1, 100 mg QD): −6.2 | Change from Baseline in PSSD Symptom Score, Median (Week 1, 100 mg QD): −7.0 | Change from Baseline in PSSD Sign Score, LSMean (Week 1, 100 mg QD): −12.4 | Change from Baseline in PSSD Symptom Score, LSMean (Week 1, 100 mg QD): −8.4 | Change from Baseline in PSSD Sign Score, Mean (Week 2, 25 mg BID): −20.3 | Change from Baseline in PSSD Sign Score, Median (Week 2, 25 mg BID): −15.0 | Change from Baseline in PSSD Symptom Score, Mean (Week 2, 25 mg BID): −16.0 | Change from Baseline in PSSD Symptom Score, Median (Week 2, 25 mg BID): −12.0 | Change from Baseline in PSSD Sign Score, LSMean (Week 2, 25 mg BID): −20.7 | Change from Baseline in PSSD Symptom Score, LSMean (Week 2, 25 mg BID): −16.2 | Change from Baseline in PSSD Sign Score, Mean (Week 2, 25 mg QD): −17.6 | Change from Baseline in PSSD Sign Score, Median (Week 2, 25 mg QD): −17.5 | Change from Baseline in PSSD Symptom Score, Mean (Week 2, 25 mg QD): −18.1 | Change from Baseline in PSSD Symptom Score, Median (Week 2, 25 mg QD): −17.0 | Change from Baseline in PSSD Sign Score, LSMean (Week 2, 25 mg QD): −15.7 | Change from Baseline in PSSD Symptom Score, LSMean (Week 2, 25 mg QD): −15.8 | Change from Baseline in PSSD Sign Score, Mean (Week 2, 50 mg QD): −22.7 | Change from Baseline in PSSD Sign Score, Median (Week 2, 50 mg QD): −22.0 | Change from Baseline in PSSD Symptom Score, Mean (Week 2, 50 mg QD): −17.3 | Change from Baseline in PSSD Symptom Score, Median (Week 2, 50 mg QD): −16.0 | Subjects Achieving PSSD Symptom Score 0 (%) (Week 2, 50 mg QD, Baseline Symptom Score ≥1, N=42): (2.4%) | Change from Baseline in PSSD Sign Score, LSMean (Week 2, 50 mg QD): −23.1 | Change from Baseline in PSSD Symptom Score, LSMean (Week 2, 50 mg QD): −17.2 | Change from Baseline in PSSD Sign Score, Mean (Week 2, 100 mg BID): −24.7 | Change from Baseline in PSSD Sign Score, Median (Week 2, 100 mg BID): −28.0 | Change from Baseline in PSSD Symptom Score, Mean (Week 2, 100 mg BID): −18.4 | Change from Baseline in PSSD Symptom Score, Median (Week 2, 100 mg BID): −14.0 | Change from Baseline in PSSD Sign Score, LSMean (Week 2, 100 mg BID): −24.3 | Change from Baseline in PSSD Symptom Score, LSMean (Week 2, 100 mg BID): −17.1 | Change from Baseline in PSSD Sign Score, Mean (Week 2, 100 mg QD): −22.6 | Change from Baseline in PSSD Sign Score, Median (Week 2, 100 mg QD): −20.0 | Change from Baseline in PSSD Symptom Score, Mean (Week 2, 100 mg QD): −15.2 | Change from Baseline in PSSD Symptom Score, Median (Week 2, 100 mg QD): −14.0 | Change from Baseline in PSSD Sign Score, LSMean (Week 2, 100 mg QD): −24.3 | Change from Baseline in PSSD Symptom Score, LSMean (Week 2, 100 mg QD): −18.4 | Change from Baseline in PSSD Sign Score, Mean (Week 4, 25 mg BID): −26.9 | Change from Baseline in PSSD Sign Score, Median (Week 4, 25 mg BID): −25.0 | Change from Baseline in PSSD Symptom Score, Mean (Week 4, 25 mg BID): −22.8 | Change from Baseline in PSSD Symptom Score, Median (Week 4, 25 mg BID): −20.0 | Subjects Achieving PSSD Symptom Score 0 (%) (Week 4, 25 mg BID, Baseline Symptom Score ≥1, N=41): (4.9%) | Change from Baseline in PSSD Sign Score, LSMean (Week 4, 25 mg BID): −27.5 | Change from Baseline in PSSD Symptom Score, LSMean (Week 4, 25 mg BID): −23.1 | Change from Baseline in PSSD Sign Score, Mean (Week 4, 25 mg QD): −24.5 | Change from Baseline in PSSD Sign Score, Median (Week 4, 25 mg QD): −29.5 | Change from Baseline in PSSD Symptom Score, Mean (Week 4, 25 mg QD): −23.6 | Change from Baseline in PSSD Symptom Score, Median (Week 4, 25 mg QD): −23.0 | Subjects Achieving PSSD Symptom Score 0 (%) (Week 4, 25 mg QD, Baseline Symptom Score ≥1, N=43): (2.3%) | Change from Baseline in PSSD Sign Score, LSMean (Week 4, 25 mg QD): −21.7 | Change from Baseline in PSSD Symptom Score, LSMean (Week 4, 25 mg QD): −19.9 | Change from Baseline in PSSD Sign Score, Mean (Week 4, 50 mg QD): −27.4 | Change from Baseline in PSSD Sign Score, Median (Week 4, 50 mg QD): −29.0
